Data set [1] relates to Escherichia coli. Description: […] activity against Escherichia coli ATCC 25922 infected in male BALB/c pulmonary infection model assessed as reduction in inflammatory cell infiltration at 10 mg/kg, ip administered at 3 and 12 hrs post infection and measured 24 hrs post infection by H and E staining based analysis. The settings on record: time 12-21 hrs. It counts as functional, organism-based.

The test system of data set [2] is Cell membrane. Description: Induction of cytoplasmic membrane depolarization in Staphylococcus aureus assessed as increase in fluorescence intensity at 0.5 to 4 times MIC measured upto 13 mins by DISC3-5 dye based fluorescence analysis.
In data set [3] the test system is Staphylococcus aureus. The experiment in a line: Additive antibacterial activity against Staphylococcus aureus ATCC 25923 assessed as fractional inhibitory concentration index at 0.25 to 4 times MIC incubated for 20 hrs in presence of rifampicin by checkerboard assay. It counts as functional, organism-based.
The test system of data set [4] is Escherichia coli. Description: Bactericidal activity against Escherichia coli ATCC 25922 assessed as elimination of bacteria at 2 times MIC measured after 1 hrs by time kill assay. It counts as functional, organism-based.
The test system of data set [5] is Escherichia coli. The experiment in a line: Synergistic antibacterial activity against Escherichia coli ATCC 25922 assessed as fractional inhibitory concentration index at 0.25 to 4 times MIC incubated for 20 hrs in presence of vancomycin by checkerboard assay. In kind it is functional, organism-based.
For data set [6], the system named is Escherichia coli. Description: Antibacterial activity against Escherichia coli ATCC 25922 assessed as inhibition of bacterial growth incubated for 20 hrs in presence of NaCl by broth microdilution method (reference value: 4 microM). In kind it is functional, organism-based. In general terms: In broth dilution the organism is exposed to a series of concentrations in liquid medium.

The subject of data set [7] is Escherichia coli. The experiment in a line: Synergistic antibacterial activity against Escherichia coli ATCC 25922 assessed as fractional inhibitory concentration index at 0.25 to 4 times MIC incubated for 20 hrs in presence of rifampicin by checkerboard assay. It counts as functional, organism-based.
Data set [8] has as its system Escherichia coli. The experiment in a line: Antibacterial activity against Escherichia coli ATCC 25922 assessed as inhibition of bacterial growth incubated for 20 hrs in presence of MgCl2 by broth microdilution method (reference value: 4 microM). It counts as functional, organism-based.
Data set [9] has as its system Cell membrane. Description: Induction of cell membrane damage in Staphylococcus aureus assessed as PI uptake at 2 times MIC measured after 2 hrs by PI dye based flow cytometry analysis (reference value: 28.8%). In kind it is cell membranes. For orientation: In flow cytometry, cells or beads pass a laser one at a time.
Data set [10] deals with Escherichia coli. Description: Synergistic antibacterial activity against gentamicin resistant Escherichia coli ATCC 25922 assessed as fractional inhibitory concentration index at 0.25 to 4 times MIC incubated for 20 hrs in presence of gentamicin by checkerboard assay. In kind it is functional.
Data set [11] is described as follows: Acute toxicity in ip dosed male BALB/c mouse administered as single dose. In kind it is organism-based. The settings on record: male, BALB/c, in vivo, read-out: LD50.
In data set [12] the test system is Escherichia coli. The experiment in a line: Additive antibacterial activity against Escherichia coli ATCC 25922 assessed as fractional inhibitory concentration index at 0.25 to 4 times MIC incubated for 20 hrs in presence of rifampicin by checkerboard assay. It counts as functional.
A short description of data set [13]: Therapeutic index, ratio of MHC10 for hemolytic activity in mouse erythrocytes preincubated with 10% mouse serum for 6 hrs to MIC for Staphylococcus aureus ATCC 25923 preincubated with 10% mouse serum for 6 hrs. It counts as toxicity, cell-based. As to conditions: mouse erythrocytes, read-out: TI.
Data set [14] concerns Escherichia coli. Description: Additive antibacterial activity against Escherichia coli ATCC 25922 assessed as fractional inhibitory concentration index at 0.25 to 4 times MIC incubated for 20 hrs in presence of kanamycin by checkerboard assay. In kind it is functional.
In data set [15] the test system is Escherichia coli. Description: Antibacterial activity against Escherichia coli ATCC 25922 assessed as inhibition of bacterial growth incubated for 20 hrs in presence of KCl by broth microdilution method (reference value: 16 microM). In kind it is functional.
The test system of data set [16] is Escherichia coli. The experiment in a line: Antibacterial activity against Escherichia coli ATCC 25922 assessed as inhibition of bacterial growth incubated for 20 hrs in presence of ZnCl2 by broth microdilution method (reference value: 16 microM). In kind it is functional.
A short description of data set [17]: Systemic toxicity in male BALB/c mouse assessed as renal cell necrosis at 109.31 mg/kg, ip administered as single dose by H and E staining based analysis. It counts as organism-based. The settings on record: in vivo.
In data set [18] the test system is Escherichia coli. Description: Antibacterial activity against Escherichia coli ATCC 25922 assessed as inhibition of bacterial growth incubated for 20 hrs in presence of NaCl by broth microdilution method (reference value: 16 microM). It counts as functional.
Data set [19] concerns Staphylococcus aureus. Description: Antibacterial activity against Staphylococcus aureus ATCC 25923 assessed as inhibition of bacterial growth upto 200 ug/ml pretreated with trypsin for 6 hrs and measured after 18 hrs by absorbance based method. It counts as functional, organism-based. As to conditions: dose <= 200.0 µg/ml, time 24.0 hrs.
The test system of data set [20] is Escherichia coli. The experiment in a line: Additive antibacterial activity against Escherichia coli ATCC 25922 assessed as fractional inhibitory concentration index at 0.25 to 4 times MIC incubated for 20 hrs in presence of gentamicin by checkerboard assay. In kind it is functional.
The subject of data set [21] is Cell membrane. The experiment in a line: Induction of inner membrane permeabilization in Escherichia coli ML-35 ATCC 43837 at 0.5 to 4 times MIC measured every 5 mins over 135 mins by ONPG reagent based microplate reader analysis.
Data set [22] concerns Staphylococcus aureus. The experiment in a line: Antibacterial activity against Staphylococcus aureus ATCC 25923 assessed as inhibition of bacterial growth upto 20 ug/ml pretreated with chymotrypsin for 6 hrs and measured after 18 hrs by absorbance based method. In kind it is functional, organism-based. The settings on record: dose <= 20.0 µg/ml, time 24.0 hrs.
The subject of data set [23] is Staphylococcus aureus. Description: Resistant development in Staphylococcus aureus assessed as increase in MIC at sub-MIC in presence of rifampicin measured after 20 passages. It counts as functional, organism-based.
Data set [24] relates to Escherichia coli. Description: Antibacterial activity against Escherichia coli ATCC 25922 assessed as inhibition of bacterial growth incubated for 20 hrs in presence of MgCl2 by broth microdilution method (reference value: 16 microM). It counts as functional.
The test system of data set [25] is Escherichia coli. The experiment in a line: […] activity against Escherichia coli ATCC 25922 infected in male BALB/c pulmonary infection model assessed as reduction in bacterial colonies at 5 to 10 mg/kg, ip administered at 3 and 12 hrs post infection and measured 24 hrs post infection. It counts as functional, organism-based. As to conditions: dose 5-10 mg/kg, time 12-21 hrs.

Data set [26] concerns Escherichia coli. The experiment in a line: Antibacterial activity against Escherichia coli ATCC 25922 assessed as inhibition of bacterial growth incubated for 20 hrs in presence of NaCl by broth microdilution method (reference value: 8 microM). In kind it is functional.
Data set [27] can be described thus: Systemic toxicity in male BALB/c mouse assessed as lung inflammatory cell infiltration at 105.41 mg/kg, ip administered as single dose by H and E staining based analysis. As to conditions: in vivo. In kind it is organism-based.
Data set [28] relates to Escherichia coli. Description: Antibacterial activity against Escherichia coli ATCC 25922 assessed as inhibition of bacterial growth incubated for 20 hrs in presence of KCl by broth microdilution method (reference value: 8 microM). It counts as functional.
The test system of data set [29] is Staphylococcus aureus. The experiment in a line: Antibacterial activity against Staphylococcus aureus ATCC 25923 assessed as inhibition of bacterial growth incubated for 20 hrs in presence of MgCl2 by broth microdilution method (reference value: 8 microM). In kind it is functional.
The test system of data set [30] is Staphylococcus aureus. The experiment in a line: Antibacterial activity against Staphylococcus aureus ATCC 25923 assessed as inhibition of bacterial growth incubated for 20 hrs in presence of NaCl by broth microdilution method (reference value: 8 microM). It counts as functional.
Data set [31] is described as follows: Systemic toxicity in male BALB/c mouse assessed as hepatocyte hemorrhage at 105.41 mg/kg, ip administered as single dose by H and E staining based analysis. In kind it is organism-based. The settings on record: hepatocytes.
Data set [32] concerns Staphylococcus aureus. Description: Antibacterial activity against Staphylococcus aureus ATCC 25923 assessed as inhibition of bacterial growth incubated for 20 hrs in presence of ZnCl2 by broth microdilution method (reference value: 8 microM). In kind it is functional.
The test system of data set [33] is Escherichia coli. The experiment in a line: Antibacterial activity against Escherichia coli ATCC 25922 assessed as inhibition of bacterial growth incubated for 20 hrs in presence of MgCl2 by broth microdilution method (reference value: 8 microM). It counts as functional.

Active and inactive are the calls of the source. Where a SMILES comes first, the peptide text is derived from it. Side-chain parts run from the residue outwards.

As usually defined, the MIC is the smallest concentration in the dilution series that meets the test's criterion for growth inhibition. In the case of POLYMYXIN B, the outcome in the data set with Escherichia coli [1] and with Cell membrane [2] was inactive. The fractional inhibitory concentration index (FICI) in the data set with Staphylococcus aureus [3] stood at 0.563; with Escherichia coli [5], 0.313; in the data set on Escherichia coli [7], 0.313; in the data set on Escherichia coli [10], 0.312. The Activity in the data set on Escherichia coli [4] amounted to 100%; in the data set on Cell membrane [9], 76.2%. In addition, the minimal inhibitory concentration (MIC) with Escherichia coli [6] came to 4 µM; in the data set with Escherichia coli [8], 2 µM.

One may read the LD50 as the dose expected to kill half of the subjects tested. Take `N=C(N)NCCC[C@H](NC(=O)[C@@H](N)CCCNC(=N)N)C(=O)NCCCC[C@H](NC(=O)[C@H](CCCNC(=N)N)NC(=O)[C@@H](N)CCCNC(=N)N)C(=O)N[C@@H](Cc1c[nH]c2ccccc12)C(=O)N[C@@H](Cc1c[nH]c2ccccc12)C(=O)N[C@@H](Cc1c[nH]c2ccccc12)C(=O)N[C@@H](Cc1c[nH]c2ccccc12)C(N)=O` (H-RRK([Arg-Arg])WWWW-NH2): the 50% lethal dose (LD50) in data set [11] was 109 mg/kg. For the same compound, the “fractional inhibitory concentration index (FICI)” value is recorded as 0.563 with Escherichia coli [12], 0.563 in the data set with Escherichia coli [14], 0.563 in the data set on Escherichia coli [20] and 5 in the data set with Escherichia coli [10]. The selectivity ratio in data set [13] amounted to 1. Moreover, the MIC is 16 µM in the data set with Escherichia coli [15], 8 µM in the data set on Escherichia coli [16], 32 µM in the data set on Escherichia coli [18] and 16 µM in the data set on Escherichia coli [24]. In addition, the Activity entry in data set [17] was “Non-Toxic”; in the data set with Cell membrane [21], “Dose-Dependent Effect”. In addition, the result in the data set on Staphylococcus aureus [19] and with Staphylococcus aureus [22] was Active. The outcome in the data set with Staphylococcus aureus [23] was inactive.

Take `N=C(N)NCCC[C@H](NC(=O)[C@H](CCCNC(=N)N)NC(=O)[C@H](CCCNC(=N)N)NC(=O)[C@@H](N)CCCNC(=N)N)C(=O)N[C@@H](CCCCN)C(=O)N[C@@H](Cc1c[nH]c2ccccc12)C(=O)N[C@@H](Cc1c[nH]c2ccccc12)C(=O)N[C@@H](Cc1c[nH]c2ccccc12)C(=O)N[C@@H](Cc1c[nH]c2ccccc12)C(N)=O`: the LD50 in [11] was 105 mg/kg. Also, in the data set on Escherichia coli [25], the outcome was Active. Also, the minimal inhibitory concentration (MIC) with Escherichia coli [26] came out at 16 µM; in the data set with Escherichia coli [28], 16 µM; with Staphylococcus aureus [29], 16 µM; in the data set with Staphylococcus aureus [30], 8 µM; in the data set on Staphylococcus aureus [32] it was 8 µM; in the data set on Escherichia coli [33] it was 16 µM. The selectivity ratio in data set [13] was determined as 0.5. The Activity result in data set [27] is “Non-Toxic”; in data set [31], “Non-Toxic”; in the data set on Cell membrane [21], “Dose-Dependent Effect”. Also, the outcome with Staphylococcus aureus [23] was inactive.

These data come from ChEMBL document CHEMBL5500371, “Arginine and tryptophan-rich dendritic antimicrobial peptides that disrupt membranes for bacterial infection in vivo” (Eur J Med Chem, 2024).
